# Data as given in ChEMBL document CHEMBL1201862, “PubChem BioAssay data set” (2004).
# The source made the active and inactive calls.
# Experiments:
# Danio rerio = test: In Vivo Angiogenesis Dose-Response Confirmation. [Related pubchem assays: 732 (Assay preceding this confirmatory assay.)]; assay type: functional, organism-based
# Aspartyl aminopeptidase = target: T1, Aspartyl aminopeptidase (Plasmodium falciparum 3D7, UniProt Q8I2J3); test: Counterscreen for inhibitors of M1 and M17 aminopeptidases: QFRET-based biochemical high throughput dose response assay for inhibitors of the Plasmodium falciparum M18 Aspartyl Aminopeptidase (PFM18AAP). [Related PubChem assays: 1619 (Screening assay (M17LAP inhibitors).), 1445 (Screening assay (M1AAP inhibitors).)]
# T1 sequence (Q8I2J3 whole entry): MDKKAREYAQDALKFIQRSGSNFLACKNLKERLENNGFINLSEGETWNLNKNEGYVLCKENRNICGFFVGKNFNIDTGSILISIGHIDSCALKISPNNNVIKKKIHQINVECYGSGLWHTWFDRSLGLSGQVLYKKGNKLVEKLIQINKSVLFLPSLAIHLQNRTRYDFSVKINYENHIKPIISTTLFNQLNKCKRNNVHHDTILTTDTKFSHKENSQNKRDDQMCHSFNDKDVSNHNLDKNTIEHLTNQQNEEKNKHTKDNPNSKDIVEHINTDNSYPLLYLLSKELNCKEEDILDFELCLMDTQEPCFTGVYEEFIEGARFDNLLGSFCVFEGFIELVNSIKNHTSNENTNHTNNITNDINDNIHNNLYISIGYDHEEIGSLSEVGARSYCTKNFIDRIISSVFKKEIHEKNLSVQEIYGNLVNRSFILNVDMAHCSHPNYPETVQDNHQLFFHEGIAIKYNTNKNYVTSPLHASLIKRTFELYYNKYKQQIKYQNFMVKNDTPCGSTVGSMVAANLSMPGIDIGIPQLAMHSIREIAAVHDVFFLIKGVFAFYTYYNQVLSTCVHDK
# fMet-Leu-Phe receptor = fMet-Leu-Phe receptor (Homo sapiens, UniProt P21462); test: FPR ligands, dose response (AID 519); assay type: functional
# Chain of fMet-Leu-Phe receptor (P21462 whole entry): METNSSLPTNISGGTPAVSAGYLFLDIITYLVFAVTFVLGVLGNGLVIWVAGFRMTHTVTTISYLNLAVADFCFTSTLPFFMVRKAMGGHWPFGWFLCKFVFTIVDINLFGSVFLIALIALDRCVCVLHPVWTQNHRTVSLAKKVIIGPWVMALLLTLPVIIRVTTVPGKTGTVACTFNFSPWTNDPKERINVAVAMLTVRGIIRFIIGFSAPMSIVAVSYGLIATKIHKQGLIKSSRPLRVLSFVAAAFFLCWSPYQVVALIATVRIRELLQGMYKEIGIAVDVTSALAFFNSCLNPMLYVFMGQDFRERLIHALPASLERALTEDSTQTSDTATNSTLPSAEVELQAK
# Leucine aminopeptidase = target: T2, Leucine aminopeptidase (Plasmodium falciparum 3D7, UniProt Q8IL11); test: P. falciparum M17LAP inhibitors, primary screen, biochemical, fluorogenic H-Leu-NHMec substrate, 1536-well (AID 1619); assay type: functional
# T2 sequence (Q8IL11 whole entry): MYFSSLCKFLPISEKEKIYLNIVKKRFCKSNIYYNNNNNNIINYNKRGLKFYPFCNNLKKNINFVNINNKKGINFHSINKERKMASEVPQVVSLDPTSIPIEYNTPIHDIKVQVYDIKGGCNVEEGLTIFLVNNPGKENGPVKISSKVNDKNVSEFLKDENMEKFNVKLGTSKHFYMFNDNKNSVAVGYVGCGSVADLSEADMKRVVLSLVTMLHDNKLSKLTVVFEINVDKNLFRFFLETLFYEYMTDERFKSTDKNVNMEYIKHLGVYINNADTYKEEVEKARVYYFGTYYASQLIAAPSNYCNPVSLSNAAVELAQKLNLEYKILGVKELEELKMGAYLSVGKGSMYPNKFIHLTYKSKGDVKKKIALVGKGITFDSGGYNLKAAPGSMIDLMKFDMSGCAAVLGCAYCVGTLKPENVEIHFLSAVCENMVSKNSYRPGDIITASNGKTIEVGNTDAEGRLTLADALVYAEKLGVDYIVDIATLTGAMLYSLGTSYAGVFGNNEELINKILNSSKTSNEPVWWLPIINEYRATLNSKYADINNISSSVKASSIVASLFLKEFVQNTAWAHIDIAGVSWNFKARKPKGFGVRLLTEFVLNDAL
# Procathepsin L = Procathepsin L (Homo sapiens, UniProt P07711); test: cathepsin L inhibitors, dose response, counter-screen for M1/M17 aminopeptidase inhibitor project, biochemical, QFRET, 1536-well (AID 2214)
# Chain of Procathepsin L (P07711 whole entry): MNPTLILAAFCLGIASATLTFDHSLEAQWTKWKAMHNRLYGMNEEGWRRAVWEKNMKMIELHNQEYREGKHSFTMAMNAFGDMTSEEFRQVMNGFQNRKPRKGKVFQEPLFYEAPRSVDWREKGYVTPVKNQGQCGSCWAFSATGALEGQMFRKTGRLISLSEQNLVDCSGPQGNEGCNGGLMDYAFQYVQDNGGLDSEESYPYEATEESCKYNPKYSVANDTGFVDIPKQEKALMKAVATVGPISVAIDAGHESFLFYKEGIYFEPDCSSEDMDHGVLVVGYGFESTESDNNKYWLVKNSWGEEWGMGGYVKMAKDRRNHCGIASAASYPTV
# Transthyretin = Transthyretin (Homo sapiens, UniProt P02766); test: Luminescence-based cell-based high throughput dose response assay to identify activators of Transthyretin (TTR) transcription.; assay type: functional
# [1] = HepG2 cell cytotoxicity, dose response, cytotoxicity control, cherry-picked samples (AID 1159577); assay type: functional, cell-based
# [2] = P. falciparum Dd2 growth inhibitors, dose response, SYBR Green, cherry-picked samples (AID 1159567); assay type: functional, cell-based
# [3] = Plasmodium falciparum Dd2 Sybr green parasite growth Measured in Cell-Based and Microorganism Combination System Using Plate Reader - 2153-01_Inhibitor_Dose_DryPowder_Activity_Set3.; assay type: functional
# [4] = HepG2 cell cytotoxicity, dose response, cytotoxicity control, plate reader, dry powder samples (AID 1159569); assay type: functional, cell-based;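 further: inhibitor potency with signal falling toward the positive control level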
# [5] = P. falciparum Dd2 growth inhibitors, dose response, SYBR Green, dry powder samples (AID 1159566); assay type: functional, cell-based;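 further: potency for growth inhibition with lower SYBR green DNA signal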
# [6] = P. falciparum Dd2 growth inhibitors, dose response, SYBR Green, dry powder samples, set 9 (AID 1159568); assay type: functional, cell-based
# [7] = P. falciparum ATP4 D1247Y mutant growth inhibitors, dose response, NITD609-resistant line, SYBR Green, dry powder (AID 1159571); assay type: functional, cell-based;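 further: parasites synchronized at ring stage by sorbitol before testing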
# [8] = P. falciparum 3D7-ScDHODH growth inhibitors, dose response, SYBR Green, dry powder samples (AID 1159570); assay type: functional, cell-based;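 further: parasite growth measured after 72 hours of compound exposure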
# [9] = target: G-protein coupled receptor 183 (Homo sapiens, UniProt P32249); test: SAR confirmation of small molecule antagonists of the EBI2 receptor via a luminescent beta-arrestin assa.; assay type: functional
# Chain of G-protein coupled receptor 183 (P32249 whole entry): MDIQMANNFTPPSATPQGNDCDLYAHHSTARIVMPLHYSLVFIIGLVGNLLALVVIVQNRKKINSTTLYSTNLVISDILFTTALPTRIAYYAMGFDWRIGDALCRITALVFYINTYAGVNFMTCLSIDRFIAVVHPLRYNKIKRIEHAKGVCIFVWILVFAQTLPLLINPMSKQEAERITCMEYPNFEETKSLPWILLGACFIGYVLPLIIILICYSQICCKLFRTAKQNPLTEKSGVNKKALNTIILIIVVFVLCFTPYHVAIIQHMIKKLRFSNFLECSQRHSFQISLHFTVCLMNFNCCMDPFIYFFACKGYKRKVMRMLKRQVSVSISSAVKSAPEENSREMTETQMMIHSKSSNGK
# [10] = A549 cell cytotoxicity, dose response, cytotoxicity control, plate reader, dry powder, set 7 (AID 743318); assay type: functional, cell-based
# [11] = cytotoxicity toward HT-29 cells – cell-based, CellTiter-Glo luminescence, IC50, dose response (AID 1117330); assay type: functional
# [12] = cytotoxicity toward HCT116 cells – cell-based, CellTiter-Glo luminescence, IC50, dose response (AID 1117332); assay type: functional; conditions: HCT-116
# [13] = CellTiter-Glo luminescent dose response of DLD-1 viability loss (AID 1117352); assay type: functional
# [14] = RKO cell viability reduction, dose response, CellTiter-Glo luminescence (AID 1117322); assay type: functional
# [15] = cytotoxicity toward Colo320 cells – cell-based, CellTiter-Glo luminescence, IC50, dose response (AID 1117334); assay type: functional; conditions: COLO 320
# [16] = SNU-C1 cell viability reduction, dose response, CellTiter-Glo luminescence (AID 1117323); assay type: functional, cell-based
# [17] = HCT116 cell viability decrease, GSK3B pretreatment – CellTiter-Glo, IC50, dose response (AID 1117339); assay type: functional; conditions: HCT-116
# [18] = Concentration-dependent survival of SW480 colon cancer line, luminescence detection with CellTiter-Glo, half-maximal inhibitory concentration (AID 1117338); assay type: functional
compound,measurement,setting,value
O=C1Nc2ccc(F)cc2/C1=C1/Nc2ccccc2/C1=N\OCCN1CCNCC1,IC50,Danio rerio,13.1 µM (not active)
CCOC(=O)c1c(NC(=O)C2C3CCC(O3)C2C(=O)O)sc(C)c1-c1ccc(C)cc1 (stereo not given),IC50,Aspartyl aminopeptidase,> 73.5 µM (not active)
same,Ki,fMet-Leu-Phe receptor,63.3 µM (inactive)
same,IC50,Leucine aminopeptidase,6.69 µM (active)
same,IC50,Procathepsin L,> 59.6 µM (not active)
Cc1cc(C)n(CC(=O)n2c(C)c(C)c3ccccc32)n1,EC50,Transthyretin,> 167 µM (inactive)
O=C(Nc1ccc2c(c1)OCO2)N1C[C@@H]2N[C@H](C1)[C@@H]2c1ccc(C=Cc2ccccc2)cc1,AC50,[1],11.2 µM (active)
same,AC50,[2],5.46 µM (active)
CO[C@@H]1CN(C)C(=O)c2ccc(NC(=O)NC(C)C)cc2OC[C@@H](C)N(Cc2ccccc2)C[C@H]1C,AC50,[3],1.4 µM (active)
same,AC50,[4],> 100 µM (inactive)
same,AC50,[5],299 nM (active)
same,AC50,[6],493 nM (active)
same,AC50,[7],1.9 µM (active)
same,AC50,[8],5.13 µM (active)
same,AC50,[2],1.78 µM (active)
O=C(/C=C/c1ccc(F)cc1)N1CCN(S(=O)(=O)c2ccc3ccccc3c2)CC1,IC50,[9],21.2 nM (active)
Cc1cccc(OCCn2c(=S)[nH]c3cc(C(F)(F)F)ccc32)c1,AC50,[10],36 µM (active)
Cc1c(O)cc2c(c1C)O[C@](C)(CCC[C@H](C)CCC[C@H](C)CCCC(C)C)CC2,IC50,[11],> 20 µM (inactive)
same,IC50,[12],> 20 µM (inactive)
same,IC50,[13],> 20 µM (inactive)
same,IC50,[14],> 20 µM (inactive)
same,IC50,[15],> 20 µM (inactive)
same,IC50,[16],> 20 µM (inactive)
same,IC50,[17],> 20 µM (inactive)
same,IC50,[18],> 20 µM (inactive)
